1 sequence from patent US20250051409A1, “MODULATORS OF PHOSPHATIDYLSERlNE DECARBOXYLASE AND USE THEREOF” (THE NATIONAL INSTITUTE FOR BIOTECHNOLOGY IN THE NEGEV LTD., priority 2021, published 2025) can be followed below.

Ends that are not written are not given here.

Test [1] has as its target T1, phosphatidylserine decarboxylase (PSD) (Homo sapiens, UniProt Q9UG56).
T1 construct: Purified recombinant protein (full length) of human phosphatidylserine decarboxylase (PSD); His tag (N); purchased Acris-OriGene; host or cells: E. coli
T1 sequence (Q9UG56 53-409): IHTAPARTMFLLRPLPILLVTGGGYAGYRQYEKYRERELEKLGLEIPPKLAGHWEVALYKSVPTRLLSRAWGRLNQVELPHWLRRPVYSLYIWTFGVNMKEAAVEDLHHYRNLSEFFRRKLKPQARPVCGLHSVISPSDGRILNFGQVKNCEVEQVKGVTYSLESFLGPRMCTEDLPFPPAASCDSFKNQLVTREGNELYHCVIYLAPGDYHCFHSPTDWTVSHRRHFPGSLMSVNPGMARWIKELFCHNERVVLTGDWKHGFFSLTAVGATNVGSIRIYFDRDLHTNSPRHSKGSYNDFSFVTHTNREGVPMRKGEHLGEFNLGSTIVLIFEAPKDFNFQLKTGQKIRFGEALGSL
Nature of the test: MST binding of synthetic peptides to fluorescently-labelled purified PSD. The conditions noted are these: PSD 0.25 μM, peptide 1-10 μM, 30 min at 37° C.

Test [2] deals with T1, phosphatidylserine decarboxylase (PSD). Nature of the test: Peptide array blotted with PSD preincubated with peptide. The conditions noted are these: PSD 0.15 μM, peptide 20 μM. The class given is binding. How it is done:
(A) Schematic presentation of peptide array and detection of their interaction with SMAC. (B) Glass-bound peptide array consisting of overlapping peptides derived from […] SMAC-interacting proteins were incubated overnight with purified SMAC (0.3 μM) and then blotted with anti-SMAC antibodies (1:1000), followed by incubation with HRP-conjugated anti-mouse IgG and detection using a chemiluminescence kit. Dark spots represent binding of SMAC to peptides derived from SMAC-interacting proteins. (C) SMAC (0.3 μM) was incubated with purified PSD (0.4 μM) and blotted as in (B). The peptide spots where PSD prevented interaction with SMAC are circled. (D) Schematic presentation of peptide array and detection of their interaction with PSD. (E) Peptide array was blotted with purified PSD (0.15 μM) and then with anti-PSD antibodies as in (B). […]
Customized 768-peptide sequences derived from 11 SMAC-interacting proteins produced by INTAVIS Peptide Services (GmbH & Co. KG, Tubingen, Germany) were arrayed on a glass slide. […] Following extensive slide washing with Tris-buffered saline containing 0.05% Tween-20, SMAC or PSD binding was detected using anti-SMAC or anti-PSD antibodies and HRP-conjugated anti-rabbit or anti-mouse IgG as a secondary antibody. […]

ALLTSGTSDPRARVTYGTPSLWARL [1C11]: binding in test [1] was characterised by a dissociation constant (Kd) of 3 µM. The “PSD interaction with array peptides after pre-incubation of PSD with the peptide” value in test [2] is given as “eliminate PSD interaction with most peptides”.
